Measurements taken from patent publication US11752155B2, “Treatment of autism spectrum disorders, obsessive-compulsive disorder and anxiety disorders” (Rugen Holdings (Cayman) Limited, priority 2016, dated 2023).
Where “and” joins values, the source holds several entries; their conditions need not be identical. Identical values can stand only once. Counter-ions that a name gives are not always drawn. Like-named read-outs stand apart in the source and are kept apart here.

Key:
[1] = molecular target: native rat brain NR2B receptors (Rattus norvegicus (Rat), UniProt P35439+Q00960); test: NR2B radioligand binding assay in rat brain using [3H] (E)-N1-(2-methoxybenzyl)-cinnamidine; conditions: rat brain NR2B receptors
Method: This example describes an NR2B receptor binding assay in rat brain using [^3H] […] The binding assay method was adapted from a previously described cellular human NR1a/NR2B cloned receptor assay (Kiss et al. Neurochem. Internatl. 2005, 46:453-464) to rat brain tissue. This assay serves as a selective measure of NR2B receptor binding activity in native rat brain receptors. Briefly, the brains of male Wistar rats were homogenized (Polytron) before centrifugation at 40,000×g for 15 minutes at 4° C. After 2 washes, the final pellet was homogenized and stored at −80° C. The protein concentration was determined by Bradford assay. [^3H] […] Non-specific binding was assessed in the presence of excess (10 μM) (E)-N1-(2-nethoxybenzyl)-cinnamidine.
Test compounds were solubilized at 10 mM in DMSO. Then the dilutions were performed with a constant solvent concentration (1% DMSO) in the assay. After incubation for 4.5 hours at room temperature, the assays were filtered on GF/3 filters pretreated with 0.3% (v/v) polyethylenimine (PEI) with a Packard system. The experiment was performed in duplicate (n=2).

human NR1/NR2B = human NR1/NR2B (Homo sapiens (Human), UniProt Q05586+Q13224); test: NR2B antagonist activity: calcium influx (Fluo-4) assay in HEK293 cells; format: cell-based; conditions: read-out: NR2B IC50
Method: Activation of the NR2A or NR2B subtype of NMDA receptor with glutamate as an agonist and glycine co-agonist on these cells results in calcium influx, which can be monitored with fluorescent indicator Fluo-4.
For experiments, the cells were seeded onto poly-D-lysine-coated 96-well black plates with clear bottom (Corning) at a density of ˜50,000 cells/well. After overnight culture, the growth medium was removed from the wells and the cells were incubated at 37° C. for 60 minutes in Hanks buffer containing 4 μM fluo-4-AM (Invitrogen) and 0.1% bovine serum albumin (BSA). After dye-loading, the cells were washed three times with Hanks buffer and incubated for 10 minutes at room temperature with various concentrations of test compounds prepared in Hanks buffer with 0.1% BSA. The cell plates were placed onto an FDSS Cell fluorescence reader (Hamamatsu). After 20 seconds of reading background fluorescence, agonist glutamate at final 100 µM and co-agonist glycine at final 50 μM were added to the cells to activate the receptor, and the resulting fluorescence changes were recorded and quantified. Based on the changes in fluorescence intensity, the pharmacological effect of test compounds was analyzed and the IC50 values derived from a non-linear least squares fitting of the concentration-dependent response to a standard logistic equation using Prism (Graphpad Software, Inc.): Amplitude=Max Amplitude/(1+(IC50/[antagonist])^n).

CYP2D6 = CYP2D6 (Homo sapiens (Human), UniProt P10635); test: CYP P450 enzyme inhibition in pooled human liver microsomes (dextromethorphan probe); format: in vitro ADME; conditions: for inhibition at 10 min, 10 µM: human, pooled human liver microsomes, pH 7.4, probe dextromethorphan, 5 μM, read-out: CYP2D6 Inhibiton at 10 μM; for IC50: Table 1.4B
Method: Test compound concentration-dependent response studies were performed in triplicate.

hERG channel = hERG channel (Homo sapiens (Human), UniProt Q12809); test: hERG channel inhibition, whole cell patch clamp in HEK293 cells; format: cell-based; conditions: for inhibition at 5 min, 10 µM: human, HEK293 cells stably expressing hERG channel, pH 7.35; for IC50: Table 1.3B
[2] = system: wild type mice (male NMRI); test: Marble Burying Test in wild type mice; format: in vivo, mouse; conditions: for change in vivo at 0.1 mg/kg / change in vivo at 0.3 mg/kg / change in vivo at 3 mg/kg / change in vivo at 10 mg/kg / change in vivo at 1 mg/kg: Mus musculus, read-out: Percent Change in marbles buried relative to vehicle
Method: Animals. Male NMRI mice (20-30 g body weight) were obtained from Janvier Labs (Le Genest-Saint Isle, France) and allowed to acclimate to the animal facility for at least 5 days. Twelve mice were studied per treatment group.
Compound formulation. The test compounds were prepared in a vehicle of 0.5% DMSO and 4% HP-β-CD, and administered orally (PO) or IP. The test compounds or vehicle were administered 20 minutes before the behavioral test described below. Clobazam (8 mg/kg IP), administered 30 minutes before the test, was used as the positive reference compound.
Clobazam was dispersed in 0.2% hydroxypropylmethylcellulose (HPMC) in physiological saline. Dosing volume was 10 mL/kg.
Testing procedure. The Marble Burying Test was conducted as previously described by Broekkamp et al. (Eur. J. Pharmacol. 1986, 126:223-229). Mice exposed to small novel objects (marbles) will bury them in the sawdust floor covering. Anxiolytics decrease the number of marbles buried at non-sedating doses. Mice were individually placed in transparent plastic cages (33×21×18 cm) with 5 cm of sawdust on the floor and 25 marbles grouped in the center of the cage. The cage was covered with an inverted plastic cage. Each test cage, together with the marbles, was impregnated with mouse odor before-hand by leaving 10 mice in the cage for 15 minutes. These mice then played no further role in the experiment. The number of marbles covered by sawdust (⅔ or more) was counted at the end of the 30-minute test. The test was performed blind (compounds versus vehicle).
Statistical analyses. Data were analyzed by comparing test compound-treated groups with the vehicle control group using the Kruskal-Wallis test followed by post-hoc Mann-Whitney U tests. Data comparing the reference compound with the vehicle were analyzed using the Mann-Whitney U test. A p value<0.05 was considered significant.

[3] = system: wild type littermate mice; test: Grooming Test in wild type littermates of Sapap3 and Shank3 complete knockout mice; format: in vivo, mouse
Method: (§1) Animals. The breeding conditions and genotyping methods for Sapap3 and Shank3 complete knockout mice were the same as described in Welch et al. (Nature 2007, 448(7156):894-900) and in Wang et al. (Nat. Commun. 2016, 7:11459), respectively. Homozygous knockout mice and littermate wild type mice of both genders were used at 4 to 8 weeks of age.
(§2) Compound formulation. The test compounds were dissolved in a small volume of dimethyl sulfoxide (DMSO) and diluted in an aqueous solution of 2-hydroxypropyl-beta-cyclodextrin (HP-β-CD) and administered IP. Dosing volume was 10 mL/kg. At 20 minutes after dosing, the mice were subjected to the behavioral test as described below.
(§3) Testing room and apparatus. The test room was maintained under the same conditions as the colony rooms, except the mice were housed in conventional shoe-box cages with food, water, and nesting materials. Animals were housed in the test room 48-72 hours prior to testing, in order to permit the mice to fully acclimate to the test room and conventional housing cages before testing. Tests were conducted in white polyvinyl-fluoride hard-sided foam test arenas (20×20×12 cm). The arenas were indirectly illuminated by dimmable LED light bars placed level with the arena floor and 30 cm away from the external wall of the test arena. This permitted the internal area of the arena to be evenly illuminated at approximately 40 lux. The illumination levels where the mice were housed before testing were about 80-100 lux.
(§4) Testing procedure. Mice were carefully placed into the test arenas 20 minutes after compound administration. Animals were given free exploration of the arena for 10 minutes, after which they were gently sprayed with 4 quick pumps of a water mist (total water volume approximated 1.5-1.7 mL). Mice were then allowed an additional 10 minutes to self-groom and engage in other behaviors before being removed from the arena. All tests were videotaped using cameras mounted above the testing arena and were saved to digital media format using Noldus Media Player software (Noldus Information Technologies, Leesburg, Va.). The mice were only tested once in the acute studies and were repeatedly tested in the sustained effect studies.
(§5) Quantitation of grooming bouts. Analyses of the video recordings were conducted with TopScan behavioral recognition software (Cleversys Inc, Reston, Va.). Configurations were made which scored time spent in grooming. […] These settings permitted automated scoring of grooming by TopScan that corresponded well to manual-scoring of these behaviors by a trained blinded observer using Noldus Observer XT9 (Noldus Information Technologies), with an average corrected kappa of 0.925 (range 0.807-0.983).
(§6) Statistical analyses. Data are presented as means and standard error of the means (SEMs). Analyses were conducted using SPSS 23 (IBM SPSS Statistics, Chicago, Ill.). Time spent in grooming behavior (seconds) over the 10-minute pre- and post-spray time blocks were analyzed with repeated measures analyses of variance (RMANOVA). The pre- and post-spray times were used for the within subject effects and the genotype and compound treatment condition were used as the between subject effects. In sustained effect studies, days were also used for a within subject effect. Some analyses of total groom time were performed in Prism 7.01 (GraphPad Software, La Jolla, Calif.), with one-way ANOVAs to compare genotypes on Day 1 or with RMANOVAs to compare treatment groups within the same genotype across days. Treatments with compounds were compared independently with the vehicle. All post-hoc comparisons were performed with Bonferroni corrections for multiple comparisons to avoid a Type I error. In all cases, a p<0.05 was considered significant.
The wild type littermates of the Sapap3 knockout and Shank3 complete knockout mice were retested after Day 1 compound administration to determine whether the sustained effects were unique to the knockout mice. […]

Sapap3 knockout mice = test: Grooming Test in Sapap3 knockout mice; format: in vivo, mouse
Method: as §1, §2, §3, §4, §5, §6
Next, the effect of two subunit-selective NR2B antagonists administered as a single IP dose and assessed 20 minutes postdose was studied in the Sapap3 knockout mice (n=6-10 mice per treatment group). […]

[4] = mean of replicates, read-out: Arithmetic Mean Ki

human NR1/NR2B, sequence (Q13224 27-1484, other chains not shown): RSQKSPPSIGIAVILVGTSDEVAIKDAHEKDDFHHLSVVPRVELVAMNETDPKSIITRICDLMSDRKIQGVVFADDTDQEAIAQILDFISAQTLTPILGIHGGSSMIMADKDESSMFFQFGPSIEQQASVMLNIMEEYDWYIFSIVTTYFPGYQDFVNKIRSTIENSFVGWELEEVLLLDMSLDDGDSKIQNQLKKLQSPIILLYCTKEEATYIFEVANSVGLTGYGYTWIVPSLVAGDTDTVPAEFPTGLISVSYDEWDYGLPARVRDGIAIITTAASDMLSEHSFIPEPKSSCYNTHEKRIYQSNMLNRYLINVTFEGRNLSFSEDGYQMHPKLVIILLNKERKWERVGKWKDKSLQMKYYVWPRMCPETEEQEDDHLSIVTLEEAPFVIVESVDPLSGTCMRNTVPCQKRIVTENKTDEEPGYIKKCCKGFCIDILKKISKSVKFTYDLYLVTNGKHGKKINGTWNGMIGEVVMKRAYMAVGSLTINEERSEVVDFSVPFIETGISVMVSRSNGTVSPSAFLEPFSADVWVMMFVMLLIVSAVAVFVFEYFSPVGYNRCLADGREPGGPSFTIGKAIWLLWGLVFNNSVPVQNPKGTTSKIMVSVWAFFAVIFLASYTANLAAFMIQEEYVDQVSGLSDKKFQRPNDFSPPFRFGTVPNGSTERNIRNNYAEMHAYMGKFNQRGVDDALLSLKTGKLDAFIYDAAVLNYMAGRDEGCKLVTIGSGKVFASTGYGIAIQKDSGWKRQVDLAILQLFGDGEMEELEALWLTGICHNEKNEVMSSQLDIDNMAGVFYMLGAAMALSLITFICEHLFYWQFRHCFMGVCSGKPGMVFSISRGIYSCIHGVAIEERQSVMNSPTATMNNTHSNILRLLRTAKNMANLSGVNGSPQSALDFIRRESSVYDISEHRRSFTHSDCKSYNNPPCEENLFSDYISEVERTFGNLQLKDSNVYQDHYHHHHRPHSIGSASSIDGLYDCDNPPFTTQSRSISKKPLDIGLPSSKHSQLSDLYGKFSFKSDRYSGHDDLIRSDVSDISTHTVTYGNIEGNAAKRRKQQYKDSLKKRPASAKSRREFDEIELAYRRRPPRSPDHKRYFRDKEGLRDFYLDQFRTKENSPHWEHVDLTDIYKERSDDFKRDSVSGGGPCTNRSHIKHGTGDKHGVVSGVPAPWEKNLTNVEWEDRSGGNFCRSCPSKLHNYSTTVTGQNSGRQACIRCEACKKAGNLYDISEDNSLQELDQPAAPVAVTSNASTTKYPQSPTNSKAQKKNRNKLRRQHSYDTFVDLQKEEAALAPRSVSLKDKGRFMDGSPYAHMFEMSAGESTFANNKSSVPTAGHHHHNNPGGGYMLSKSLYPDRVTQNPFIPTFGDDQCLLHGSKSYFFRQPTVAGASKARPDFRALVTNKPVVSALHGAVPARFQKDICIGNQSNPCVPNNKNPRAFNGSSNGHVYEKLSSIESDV
hERG channel, sequence (Q12809 whole entry): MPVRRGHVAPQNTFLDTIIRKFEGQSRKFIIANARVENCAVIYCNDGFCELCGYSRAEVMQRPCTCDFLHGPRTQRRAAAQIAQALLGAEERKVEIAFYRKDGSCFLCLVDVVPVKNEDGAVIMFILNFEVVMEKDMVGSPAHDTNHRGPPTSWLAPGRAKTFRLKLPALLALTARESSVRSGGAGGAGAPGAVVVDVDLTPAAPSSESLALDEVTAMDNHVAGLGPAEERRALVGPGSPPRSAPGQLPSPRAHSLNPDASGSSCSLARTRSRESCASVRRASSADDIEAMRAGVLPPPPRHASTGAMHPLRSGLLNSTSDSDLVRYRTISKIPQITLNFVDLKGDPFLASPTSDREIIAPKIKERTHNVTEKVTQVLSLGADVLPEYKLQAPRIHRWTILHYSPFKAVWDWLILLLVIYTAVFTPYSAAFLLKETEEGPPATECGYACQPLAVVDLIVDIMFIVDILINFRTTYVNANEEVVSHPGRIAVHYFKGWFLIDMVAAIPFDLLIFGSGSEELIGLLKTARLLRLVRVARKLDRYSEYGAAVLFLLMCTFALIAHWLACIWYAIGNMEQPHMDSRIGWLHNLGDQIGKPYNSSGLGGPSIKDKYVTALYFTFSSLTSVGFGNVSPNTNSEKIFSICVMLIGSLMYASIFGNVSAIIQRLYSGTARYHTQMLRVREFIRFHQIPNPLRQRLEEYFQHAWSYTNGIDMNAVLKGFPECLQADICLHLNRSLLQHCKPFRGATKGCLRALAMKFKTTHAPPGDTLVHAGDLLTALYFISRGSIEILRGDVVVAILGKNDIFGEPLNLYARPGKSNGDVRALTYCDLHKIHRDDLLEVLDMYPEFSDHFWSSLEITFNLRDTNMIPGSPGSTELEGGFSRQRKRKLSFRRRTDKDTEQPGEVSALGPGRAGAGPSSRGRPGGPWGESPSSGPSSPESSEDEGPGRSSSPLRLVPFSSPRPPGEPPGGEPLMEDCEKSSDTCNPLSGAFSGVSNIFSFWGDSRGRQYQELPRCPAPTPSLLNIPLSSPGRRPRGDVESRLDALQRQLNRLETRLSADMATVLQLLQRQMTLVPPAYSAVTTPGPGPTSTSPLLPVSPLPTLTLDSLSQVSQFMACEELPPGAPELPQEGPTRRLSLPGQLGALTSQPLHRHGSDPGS
CYP2D6, sequence (P10635 whole entry): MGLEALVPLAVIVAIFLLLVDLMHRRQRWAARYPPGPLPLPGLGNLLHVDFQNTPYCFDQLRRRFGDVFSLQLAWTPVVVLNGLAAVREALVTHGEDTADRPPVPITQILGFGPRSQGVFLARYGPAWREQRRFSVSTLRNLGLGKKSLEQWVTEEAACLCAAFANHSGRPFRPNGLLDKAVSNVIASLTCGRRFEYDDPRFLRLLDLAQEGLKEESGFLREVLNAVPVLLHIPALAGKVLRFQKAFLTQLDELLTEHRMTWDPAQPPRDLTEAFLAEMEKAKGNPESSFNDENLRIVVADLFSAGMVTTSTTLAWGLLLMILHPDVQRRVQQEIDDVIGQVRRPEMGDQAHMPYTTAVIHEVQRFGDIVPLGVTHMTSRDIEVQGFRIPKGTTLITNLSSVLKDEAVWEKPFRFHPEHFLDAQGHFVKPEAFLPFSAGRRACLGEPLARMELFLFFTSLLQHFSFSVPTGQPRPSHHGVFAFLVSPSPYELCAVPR
native rat brain NR2B receptors, sequence (Q00960 27-1482, other chains not shown): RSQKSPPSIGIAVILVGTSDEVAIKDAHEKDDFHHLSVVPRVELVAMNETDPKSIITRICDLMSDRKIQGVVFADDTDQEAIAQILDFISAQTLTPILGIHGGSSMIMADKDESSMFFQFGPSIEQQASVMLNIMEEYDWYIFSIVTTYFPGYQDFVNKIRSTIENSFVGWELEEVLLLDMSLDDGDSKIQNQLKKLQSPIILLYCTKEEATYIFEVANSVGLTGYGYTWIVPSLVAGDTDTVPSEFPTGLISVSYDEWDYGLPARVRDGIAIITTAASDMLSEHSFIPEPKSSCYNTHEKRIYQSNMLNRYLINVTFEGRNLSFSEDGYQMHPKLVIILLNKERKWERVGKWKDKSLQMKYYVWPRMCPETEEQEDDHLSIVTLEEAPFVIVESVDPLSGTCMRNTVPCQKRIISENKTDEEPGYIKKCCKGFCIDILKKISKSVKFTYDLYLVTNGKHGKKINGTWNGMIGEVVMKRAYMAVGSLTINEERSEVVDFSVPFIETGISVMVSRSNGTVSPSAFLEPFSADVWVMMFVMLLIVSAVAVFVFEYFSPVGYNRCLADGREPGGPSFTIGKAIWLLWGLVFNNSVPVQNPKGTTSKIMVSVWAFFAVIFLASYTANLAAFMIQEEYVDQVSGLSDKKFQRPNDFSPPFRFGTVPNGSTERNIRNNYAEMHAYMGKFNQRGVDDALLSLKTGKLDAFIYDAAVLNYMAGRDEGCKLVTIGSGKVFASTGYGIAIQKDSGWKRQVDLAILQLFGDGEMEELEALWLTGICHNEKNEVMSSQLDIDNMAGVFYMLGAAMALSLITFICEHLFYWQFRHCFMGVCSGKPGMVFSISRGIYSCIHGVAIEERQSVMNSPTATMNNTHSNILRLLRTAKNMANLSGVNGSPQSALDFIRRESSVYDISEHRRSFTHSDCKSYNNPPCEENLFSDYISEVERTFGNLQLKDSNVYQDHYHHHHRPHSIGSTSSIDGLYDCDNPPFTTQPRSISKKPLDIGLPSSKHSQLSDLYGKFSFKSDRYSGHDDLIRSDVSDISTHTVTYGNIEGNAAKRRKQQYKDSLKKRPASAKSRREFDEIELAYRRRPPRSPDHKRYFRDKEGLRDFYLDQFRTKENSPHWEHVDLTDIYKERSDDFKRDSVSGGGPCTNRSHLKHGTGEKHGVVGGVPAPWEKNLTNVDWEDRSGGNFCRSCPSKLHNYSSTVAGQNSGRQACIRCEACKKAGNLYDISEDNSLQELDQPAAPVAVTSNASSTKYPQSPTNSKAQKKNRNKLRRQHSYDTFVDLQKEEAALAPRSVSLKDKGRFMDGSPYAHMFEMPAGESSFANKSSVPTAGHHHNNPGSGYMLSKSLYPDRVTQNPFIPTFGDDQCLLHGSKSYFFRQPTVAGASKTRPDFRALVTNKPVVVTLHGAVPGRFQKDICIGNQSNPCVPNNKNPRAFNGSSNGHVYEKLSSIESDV

SMILES	Ki [1, 4] [nM]	IC50 (human NR1/NR2B; Table 1.1B) [nM]	IC50 (human NR1/NR2B; Table 1.3B) [nM]	IC50 (human NR1/NR2B; Table 1.4B) [nM]	inhibition at 10 min, 10 µM (CYP2D6) [%]	IC50 (CYP2D6) [nM]	inhibition at 5 min, 10 µM (hERG channel) [%]	IC50 (hERG channel) [nM]	change in vivo at 0.3 mg/kg ([2]; ip) [%]	change in vivo at 3 mg/kg ([2]; ip) [%]	further results
O=C(OCc1ccc(Cl)cc1)N1CC[C@H](CNc2nccn3cnnc23)C(F)(F)C1 [E1-1.3^B′]	8.67	14.8	14.8	14.8	37	–	19	–	–	–	–
O=C(OCc1ccc(F)cc1)N1CC[C@H](CNc2nccn3cnnc23)C(F)(F)C1 [E1-1.4^B′]	–	20.5	20.5	20.5	19	–	11	–	–	–	–
Cc1ccc(COC(=O)N2CC[C@H](CNc3cnccn3)C(F)(F)C2)cc1 [E1-21.2^B′]	–	13.9	13.9	13.9	97	–	27	–	–	–	–
CCc1ccc(COC(=O)N2CC[C@H](CNc3ncccn3)C(F)(F)C2)cc1 [E1-22.5^B′, (R)-4-ethylbenzyl 3,3-difluoro-4-((pyrimidin-2-ylamino)methyl)piperidine-1-carboxylate methanesulfonate]	–	–	–	–	–	29000	–	9200	8	-100	change in vivo at 0.1 mg/kg ([2]; ip): -9%; change in vivo at 10 mg/kg ([2]; ip): -100%; change in vivo at 0.3 mg/kg ([2]; po): -11%; change in vivo at 1 mg/kg ([2]; po): -15%; change in vivo at 3 mg/kg ([2]; po): -76%; efficacy in the Marble Burying Test ([2]; lowest test concentration of 1 mg/kg, IP): fully efficacious
O=C(OCc1ccc(C(F)F)cc1)N1CC[C@H](CNc2ncccn2)C(F)(F)C1 [E1-22.6^B′, (R)-4-(difluoromethyl)benzyl 3,3-difluoro-4-((pyrimidin-2-ylamino)methyl)piperidine-1-carboxylate mesylate]	–	–	–	–	–	41000	–	7300	-95	-98	effect on grooming on Day 3 ([3]; 1 mg/kg IP on Day 1, wild type littermates): did not show an effect; effect on grooming on Day 1 ([3]; 1 mg/kg IP, wild type littermates): significant reduction in grooming; effect on grooming on Day 5 ([3]; 3 mg/kg IP on Day 1, wild type littermates): significantly increased grooming; effect on grooming on Day 3 ([3]; 3 mg/kg IP on Day 1, wild type littermates, mesylate): significantly reduced grooming; acute effect on grooming on Day 1 ([3]; wild type littermates of Sapap3 knockout mice, dose-dependent): significantly reduced grooming; significantly reduced grooming through Day (Sapap3 knockout mice; first dose 3 mg/kg IP on Day 1): 15 days; acute effect on excessive self-grooming (Sapap3 knockout mice; single IP dose, 20 min postdose, Day 1): significantly reduced grooming; significantly reduced grooming through Day (Sapap3 knockout mice; single dose 1 mg/kg IP on Day 1): 15 days; change in vivo at 0.1 mg/kg ([2]; ip): -30%; change in vivo at 10 mg/kg ([2]; ip): -100%

Second part, led by results:

Ki [1, 4] [nM]	IC50 (human NR1/NR2B; Table 1.1B) [nM]	IC50 (human NR1/NR2B; Table 1.3B) [nM]	IC50 (human NR1/NR2B; Table 1.4B) [nM]	inhibition at 10 min, 10 µM (CYP2D6) [%]	IC50 (CYP2D6) [nM]	SMILES	inhibition at 5 min, 10 µM (hERG channel) [%]	IC50 (hERG channel) [nM]	change in vivo at 0.3 mg/kg ([2]; ip) [%]	change in vivo at 3 mg/kg ([2]; ip) [%]	further results
6.5	–	–	–	–	9700	Cc1ccc(COC(=O)N2CC[C@H](CNc3ccc(C)cn3)C(F)(F)C2)cc1 [E1-23.26^B′, (R)-4-methylbenzyl 3,3-difluoro-4-(((5-methylpyridin-2-yl)amino)methyl)piperidine-1-carboxylate]	–	–	–	–	–
2.85	–	–	–	–	15000	Cc1ccc(COC(=O)N2CC[C@H](CNc3cccnn3)C(F)(F)C2)cc1 [E1-24.2^B′, (R)-4-methylbenzyl 3,3-difluoro-4-((pyridazin-3-ylamino)methyl)piperidine-1-carboxylate]	–	25000	–	–	Ki ([1]; individual replicate, read-out: Ki, result from each assay): 2.1 nM and 3.6 nM
–	–	–	–	–	1490	Cc1ccc(COC(=O)N2CC[C@H](CNc3ccncc3)C(F)(F)C2)cc1 [E1-38.2^B′, (R)-4-methylbenzyl 3,3-difluoro-4-((pyridin-4-ylamino)methyl)piperidine-1-carboxylate methanesulfonate]	–	2900	4	-76	change in vivo at 1 mg/kg ([2]; ip): -18%
